What was measured:
Assay type in all cases: binding
Details in all cases: Compound Concentration 10 µM
panel of 442 kinases [1] = biological target: T1, panel of 442 kinases (Homo sapiens, UniProt P08922)
T1 construct: purchased KINOMEscan
Text: (§1) We assessed the selectivity of members of this scaffold using the KINOMEscan methodology across a near comprehensive panel of 442 kinases [[18,27]].

panel of 442 kinases [2] = biological target: T2, panel of 442 kinases (Homo sapiens, UniProt Q15835)
T2 construct: purchased KINOMEscan
T2 sequence (Q15835 1-563): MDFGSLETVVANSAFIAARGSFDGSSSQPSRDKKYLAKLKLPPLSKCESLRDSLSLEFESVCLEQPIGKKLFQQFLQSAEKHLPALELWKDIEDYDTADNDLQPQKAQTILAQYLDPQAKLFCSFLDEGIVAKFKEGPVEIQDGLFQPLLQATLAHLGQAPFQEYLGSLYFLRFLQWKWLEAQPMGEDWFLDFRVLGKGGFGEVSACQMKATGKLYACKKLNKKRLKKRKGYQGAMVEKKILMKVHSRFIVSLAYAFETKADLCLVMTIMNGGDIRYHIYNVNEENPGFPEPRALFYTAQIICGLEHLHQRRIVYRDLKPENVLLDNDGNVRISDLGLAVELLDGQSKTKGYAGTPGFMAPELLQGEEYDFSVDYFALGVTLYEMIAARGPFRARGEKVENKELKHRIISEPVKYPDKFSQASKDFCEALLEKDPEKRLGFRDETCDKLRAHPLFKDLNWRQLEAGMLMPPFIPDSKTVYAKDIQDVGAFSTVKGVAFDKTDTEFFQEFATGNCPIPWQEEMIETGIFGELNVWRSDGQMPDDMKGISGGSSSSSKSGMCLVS
Text: as §1

panel of 442 kinases [3] = biological target: T3, panel of 442 kinases (Homo sapiens, UniProt Q9P0L2)
T3 construct: purchased KINOMEscan
T3 sequence (Q9P0L2 whole entry): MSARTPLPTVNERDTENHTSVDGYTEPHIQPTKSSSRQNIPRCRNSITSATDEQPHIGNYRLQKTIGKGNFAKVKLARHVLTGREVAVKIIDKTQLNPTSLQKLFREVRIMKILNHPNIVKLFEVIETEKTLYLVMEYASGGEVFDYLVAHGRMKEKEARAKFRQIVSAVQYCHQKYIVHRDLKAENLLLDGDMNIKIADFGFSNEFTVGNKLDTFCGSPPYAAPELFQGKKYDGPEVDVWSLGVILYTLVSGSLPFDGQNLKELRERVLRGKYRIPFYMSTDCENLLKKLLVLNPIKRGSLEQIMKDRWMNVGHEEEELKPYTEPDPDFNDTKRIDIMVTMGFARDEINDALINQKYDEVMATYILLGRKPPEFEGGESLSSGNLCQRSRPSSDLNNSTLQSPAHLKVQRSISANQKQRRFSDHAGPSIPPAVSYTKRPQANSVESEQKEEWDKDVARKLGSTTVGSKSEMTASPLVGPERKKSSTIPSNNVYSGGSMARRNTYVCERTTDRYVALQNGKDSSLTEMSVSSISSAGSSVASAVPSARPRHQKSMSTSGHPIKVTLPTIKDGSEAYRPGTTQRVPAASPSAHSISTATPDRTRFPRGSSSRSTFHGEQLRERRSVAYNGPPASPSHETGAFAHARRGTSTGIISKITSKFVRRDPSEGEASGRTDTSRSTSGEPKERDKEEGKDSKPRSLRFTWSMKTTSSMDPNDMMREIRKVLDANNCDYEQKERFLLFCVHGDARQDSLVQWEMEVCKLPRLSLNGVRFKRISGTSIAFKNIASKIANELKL
Text: as §1

T1 sequence (P08922 28-2347): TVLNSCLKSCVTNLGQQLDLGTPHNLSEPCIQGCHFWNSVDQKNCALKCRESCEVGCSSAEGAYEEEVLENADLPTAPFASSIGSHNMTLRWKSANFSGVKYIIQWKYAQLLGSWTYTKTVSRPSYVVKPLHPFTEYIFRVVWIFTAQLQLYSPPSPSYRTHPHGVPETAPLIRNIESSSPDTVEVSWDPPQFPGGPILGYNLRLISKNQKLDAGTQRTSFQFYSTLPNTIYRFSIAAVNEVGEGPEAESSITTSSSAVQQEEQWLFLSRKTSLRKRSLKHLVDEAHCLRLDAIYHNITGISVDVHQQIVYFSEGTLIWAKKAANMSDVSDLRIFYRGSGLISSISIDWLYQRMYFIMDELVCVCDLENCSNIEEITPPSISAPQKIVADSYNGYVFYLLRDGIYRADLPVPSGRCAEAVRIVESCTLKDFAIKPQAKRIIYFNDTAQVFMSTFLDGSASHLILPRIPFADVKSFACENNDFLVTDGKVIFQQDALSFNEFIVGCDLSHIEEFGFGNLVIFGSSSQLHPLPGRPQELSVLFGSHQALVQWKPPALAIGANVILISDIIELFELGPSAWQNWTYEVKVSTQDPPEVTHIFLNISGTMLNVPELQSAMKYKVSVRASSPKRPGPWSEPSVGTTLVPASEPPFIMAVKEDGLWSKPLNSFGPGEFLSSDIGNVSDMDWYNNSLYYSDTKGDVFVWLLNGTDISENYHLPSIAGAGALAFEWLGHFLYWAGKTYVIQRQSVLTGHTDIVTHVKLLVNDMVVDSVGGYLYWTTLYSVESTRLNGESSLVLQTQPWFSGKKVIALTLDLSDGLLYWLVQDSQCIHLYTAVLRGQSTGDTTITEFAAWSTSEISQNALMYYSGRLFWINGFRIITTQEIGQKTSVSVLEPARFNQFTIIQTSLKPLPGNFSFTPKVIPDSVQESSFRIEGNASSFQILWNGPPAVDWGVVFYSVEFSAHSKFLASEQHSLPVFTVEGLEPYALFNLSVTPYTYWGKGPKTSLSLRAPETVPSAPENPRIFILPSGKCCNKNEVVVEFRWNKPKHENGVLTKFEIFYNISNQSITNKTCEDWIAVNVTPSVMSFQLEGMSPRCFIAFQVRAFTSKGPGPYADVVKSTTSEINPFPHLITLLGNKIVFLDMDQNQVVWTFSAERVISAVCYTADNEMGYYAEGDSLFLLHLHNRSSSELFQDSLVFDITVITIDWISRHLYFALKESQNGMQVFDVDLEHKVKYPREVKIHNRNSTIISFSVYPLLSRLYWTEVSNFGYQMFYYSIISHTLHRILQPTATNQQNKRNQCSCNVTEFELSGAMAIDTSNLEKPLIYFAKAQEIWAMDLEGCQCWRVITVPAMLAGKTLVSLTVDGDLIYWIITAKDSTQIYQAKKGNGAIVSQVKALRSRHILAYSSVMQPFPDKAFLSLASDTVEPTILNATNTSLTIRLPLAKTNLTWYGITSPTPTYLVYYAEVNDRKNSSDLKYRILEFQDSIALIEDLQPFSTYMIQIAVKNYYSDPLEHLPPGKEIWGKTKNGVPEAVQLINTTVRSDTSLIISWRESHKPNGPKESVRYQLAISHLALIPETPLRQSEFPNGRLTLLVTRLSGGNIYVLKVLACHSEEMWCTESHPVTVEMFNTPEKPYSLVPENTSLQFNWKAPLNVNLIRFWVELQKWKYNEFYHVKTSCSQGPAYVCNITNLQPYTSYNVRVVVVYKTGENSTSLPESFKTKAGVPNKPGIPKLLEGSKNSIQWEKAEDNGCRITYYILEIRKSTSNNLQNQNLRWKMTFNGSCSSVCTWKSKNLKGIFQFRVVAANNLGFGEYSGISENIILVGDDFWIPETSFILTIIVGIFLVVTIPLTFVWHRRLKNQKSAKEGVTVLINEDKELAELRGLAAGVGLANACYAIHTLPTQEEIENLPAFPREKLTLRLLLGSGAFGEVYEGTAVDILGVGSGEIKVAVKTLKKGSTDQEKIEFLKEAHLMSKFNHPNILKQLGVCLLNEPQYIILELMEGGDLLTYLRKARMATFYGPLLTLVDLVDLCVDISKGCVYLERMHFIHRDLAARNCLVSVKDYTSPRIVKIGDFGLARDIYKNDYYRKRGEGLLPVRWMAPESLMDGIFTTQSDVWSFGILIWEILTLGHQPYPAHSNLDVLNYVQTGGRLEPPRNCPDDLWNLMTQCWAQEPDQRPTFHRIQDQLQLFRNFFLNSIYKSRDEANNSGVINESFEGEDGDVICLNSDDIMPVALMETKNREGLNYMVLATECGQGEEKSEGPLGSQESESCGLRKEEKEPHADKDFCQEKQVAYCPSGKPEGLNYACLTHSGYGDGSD

Row | SMILES | KINOMEscan: ROS1 (panel of 442 kinases [1]) | KINOMEscan: GRK1 (panel of 442 kinases [2]) | KINOMEscan: MARK1 (panel of 442 kinases [3])
1 | COc1cc(C(=O)N2CCC(N3CCN(C)CC3)CC2)ccc1Nc1ncc2c(n1)N(C)c1ccccc1C(=O)N2C [15 (LRRK2-IN-1)] | 12 | 91 | 87
2 | CCOc1cc(C(=O)N2CCC(N3CCN(C)CC3)CC2)ccc1Nc1ncc2c(n1)N(C1CCCC1)c1ccccc1C(=O)N2C [Compound 26] | 20 | 100 | 100
3 | COc1cc(C(=O)N2CCC(N3CCN(C)CC3)CC2)ccc1Nc1ncc2c(n1)N1CCc3cccc(c31)C(=O)N2C [Compound 24] | 24 | – | 83
4 | COc1cc(C(=O)N2CCC(N3CCN(C)CC3)CC2)ccc1Nc1ncc2c(n1)N(C1CCCC1)c1ccccc1C(=O)N2C [Compound 25, 11-cyclopentyl-2-((2-methoxy-4-(4-(4-methylpiperazin-1-yl)piperidine-1-carbonyl)phenyl)amino)-5-methyl-5H-benzo[e]pyrimido[5,4-b][1,4]diazepin-6(11H)-one] | 3.4 | 85 | 99
